Measured values as given in US20230028658A1, “EXPANDED DOSAGE REGIMENS FOR INTEGRIN INHIBITORS” (Pliant Therapeutics, Inc., priority 2021, published 2023).

Tests used:
[1] = system: IPF-derived lung fibroblasts; test: cell adhesion in IPF-derived lung fibroblasts (FIG. 3B); assay type: cell-based
COL1A1 = COL1A1 expression in precision cut lung slices (PCLS) from human IPF lung tissue (FIG. 6E); assay type: cell-based; settings: concentrations ranging from 200 pM to 1 μM, versus 0.1% DMSO control
Method: FIG. 6D is a bar graph showing relative expression of COL1A1 in precision cut lung slices (PCLS) from idiopathic pulmonary fibrosis (IPF) lung tissue upon exposure to Compound 5, clinical standard of care compounds nintedanib (Nin) and pirfenidone (Pirf), and an ALK5 inhibitor, all versus DMSO control.
COL1A1 expression is also graphed for the PCLS in the presence of 0.1% DMSO control, and an Alk5 inhibitor at 1 μM.

[2] = system: human bronchial epithelial cells; test: LAP adhesion binding assay, normal human bronchial epithelial cells (xCELLigence cell index); assay type: cell-based; settings: FIG. 3A; cell index (electrical impedance)
Method: Two latency associated peptide (LAP) adhesion binding assays were devised using primary human lung cells, including normal (healthy) human bronchial epithelial cells and human lung fibroblasts (healthy and IPF).
Human bronchial epithelial cells are known to express αvβ6 integrin in culture. Human bronchial epithelial cells were prepared for the assay by dissociation with trypsin/EDTA and were then seeded at 20,000 cells per well on 96 well plates (ACEA Bioscience E-plate View, Acea Biosciences; San Diego, Calif.) previously coated with 5 μg/ml of recombinant human LAP (R&D Systems; Minneapolis, Minn.) and blocked with 4% bovine serum albumin. Cell index (electrical impedance) was measured to assess cell attachment/spreading every 3 minutes for 24 hours at 37° C./5% CO2 using the xCELLigence RTCA MP Instrument (Acea Biosciences; San Diego, Calif.).

[3] = system: Type I Collagen gene Col1a1 expression; test: Precision cut lung slices of mice under acute bleomycin exposure, Col1a1 expression; assay type: cell-based, Mice (C57BL/6); settings: acute bleomycin PCLS, 3 days culture, normalized to DMSO; FIG. 5A
Method: Mice (C57BL/6) were administered 3 U/kg of bleomycin (Teva Pharmaceuticals; North Wales, Pa.) on day 0 via oropharyngeal aspiration while under anesthesia. On day 14, precision cut lung slices were obtained. Following euthanization, 2% low gelling temp agarose was injected into the mouse lungs via the trachea. […] The lobes were then subjected to precision slicing to obtain samples for culture using a microtome (Compresstome VF-300-0Z, Precisionary; Greenville, N.C.). Individual slices were distributed in a multiwell culture plate and cultured for 3 days under control (DMSO) and test compound conditions.

lung Col1a1 expression = test: Precision cut lung slices of mice under chronic bleomycin exposure, Col1a1 expression (Example B9); assay type: cell-based, Mice (C57BL/6); settings: chronic bleomycin PCLS, 7 days culture, normalized to DMSO; FIG. 5B
Method: Mice (C57BL/6) were administered 3 U/kg of bleomycin (Teva Pharmaceuticals; North Wales, Pa.) on Day 0 and 1 U/kg of bleomycin on days 14, 28, 42 and 56 via oropharyngeal aspiration while under anesthesia. At day 70, 14 days after the final bleomycin insult, precision cut lung slices were obtained. Following euthanization, 2% low gelling temp agarose was injected into the mouse lungs via the trachea. […] The lobes were then subjected to precision slicing to obtain samples for culture using a microtome (Compresstome VF-300-0Z, Precisionary; Greenville, N.C.). Individual slices were distributed in a multiwell culture plate and cultured for 7 days under control (DMSO) and test compound conditions. The viability of the slices over the course of culturing was confirmed by WST-1 assay of mitochondrial activity.
During the culture period, slices in the control group were treated with DMSO and slices in the test group were treated with a DMSO solution of one of: the selective antibody αvβ6 inhibitor 3G9; the αvβ1-selective small molecule inhibitor; a combination of the selective antibody αvβ6 inhibitor 3G9 and the αvβ1-selective small molecule inhibitor; compound 5; and the small molecule ALK5 inhibitor. The selective αvβ1 and αvβ6 integrin inhibitors were analyzed at ≥their respective IC90 concentrations for inhibition of TGF-beta activation. […]

COL1A1 expression = test: PCLS from IPF lung tissue, seven days, COL1A1 expression; assay type: cell-based, human; settings: PCLS from a single IPF lung tissue sample, Compound 5 200 pM to 1 μM, significant reduction observed ≥2 nM, FIG. 6E
Method: PCLS from 5-7 idopathic pulmonary fibrosis (IPF) lung tissue samples were cultured for seven days with one of: DMSO; Compound 5 at 200 nM; nintedanib at 75 nM; pirfenidone at 50 μm; a combination of Compound 5 at 200 nM and nintedanib at 75 nM; a combination of Compound 5 at 200 nM and pirfenidone at 50 μm; or an Alk5 inhibitor at 1 μm. […] FIG. 6D is a bar graph showing relative expression of COL1A1 in precision cut lung slices (PCLS) from idopathic pulmonary fibrosis (IPF) lung tissue upon exposure to Compound 5, clinical standard of care compounds nintedanib (Nin) and pirfenidone (Pirf), and an ALK5 inhibitor, all versus DMSO control.
PCLS from a single IPF lung tissue sample were cultured for seven days with Compound 5 at concentrations of 200 pM, 2 nM, 60 nM, 200 nM, and 1 μM, along with 0.1% DMSO control and an Alk5 inhibitor at 1 μM. […] COL1A1 expression is also graphed for the PCLS in the presence of 0.1% DMSO control, and an Alk5 inhibitor at 1 μM.

[4] = First-in-human SAD and MAD pharmacokinetics (Example B12); assay type: in vivo; settings: plasma, healthy subjects, oral solution, SAD 15-75 mg and MAD 10-40 mg, read-out: calculated half life
Method: Healthy human subjects (N=85) were selected for single ascending dose (SAD) and multiple ascending dose (MAD) first-in-human studies. A solution for oral administration was prepared, containing 10 mg/mL of compound 5 in a 50:50 mixture of ORA-SWEET® SF (PERRIGO®, Allegan, Mich.) and sterile water for irrigation. Sufficient solution was administered orally to the subjects to provide between 15 mg/dose and 75 mg/dose of compound 5 in the SAD study and between 10 mg/dose and 40 mg/dose of compound 5 in the MAD study. Concentrations of compound 5 were measured in the subjects by obtaining a sample of plasma from each subject at desired intervals, and subjecting the plasma to liquid chromatography-mass spectrometry-mass spectrometry (LC-MS/MS), with quantification using a calibration curve determined from a range of solutions at standardized concentrations. The lower limit of quantitation (LLOQ) of the assay was 1 ng/mL and the calibration curve range was 1 to 500 ng/mL.

half-life [4]: 2100 to 3300 min
Structure (SMILES): COCCN(CCCCc1ccc2c(n1)NCCC2)CC[C@H](Nc1ncnc2ccccc12)C(=O)O [Compound 5, (S)-4-((2-methoxyethyl) (4-(5,6,7,8-tetrahydro-1,8-naphthyridin-2-yl)butyl)amino)-2-(quinazolin-4-ylamino) butanoic acid]
cell adhesion in the IPF-derived lung fibroblasts [1]: substantially inhibited
COL1A1 expression in PCLS from human IPF lung tissue (COL1A1): dose dependent reduction
inhibition of normal bronchial epithelial cell adhesion to LAP [2]: substantially inhibited
Type I Collagen gene Col1a1 expression [3]: decreased Type I Collagen gene Col1a1 expression substantially
lung Col1a1 expression (lung Col1a1 expression): decreased lung Col1a1 expression substantially
reduction in COL1A1 expression at ≥2 nM (COL1A1 expression): ≥ 47%
